Consider 25 molecules from patent US20220274967A1, “BCAT MODULATION” (Icagen, LLC, priority 2019, published 2022).

Like-named read-outs stand apart in the source and are kept apart here. A value given as a limit tells only on which side of the number the result lay.

The target of one experiment is T1, BCAT2 (Homo sapiens, UniProt O15382).
T1 sequence (O15382 28-392): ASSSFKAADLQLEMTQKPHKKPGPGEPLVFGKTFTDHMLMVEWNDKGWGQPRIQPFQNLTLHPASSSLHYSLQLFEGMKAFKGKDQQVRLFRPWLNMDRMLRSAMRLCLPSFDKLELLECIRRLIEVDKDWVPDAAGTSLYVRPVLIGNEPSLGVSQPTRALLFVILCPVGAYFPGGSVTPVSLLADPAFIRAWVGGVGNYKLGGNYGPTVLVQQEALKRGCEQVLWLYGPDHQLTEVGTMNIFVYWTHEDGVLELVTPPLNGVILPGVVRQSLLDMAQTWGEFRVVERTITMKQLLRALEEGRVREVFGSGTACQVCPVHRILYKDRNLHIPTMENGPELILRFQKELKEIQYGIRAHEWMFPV
Description: BCAT2 enzyme inhibition (human). In kind it is biochemical. The method, then:
In further embodiments, the functional modulation of BCAT2 is assayed using a cell-free assay. In various embodiments, the cell-free assay is an enzyme-coupled fluorescent assay. For example, the disclosure contemplates use of an assay that monitors the production of L-glutamate from branch-chain amino acids and α-ketoglutarate through the coupling of hBCATm activity to two additional enzymes, L-Glutamate Oxidase (L-GOx) and Horseradish Peroxidase (HRP). Specifically, L-GOx catabolizes L-glutamate to generate α-ketoglutarate and […], the latter being utilized by HRP and leading to the formation of fluorescent resorufin from the redox-sensitive dye Amplex Red. In some embodiments, the test compound is classified as a candidate compound if a decrease in L-glutamate is measured. In further embodiments, the test compound is classified as a candidate compound if a decrease in α-ketoglutarate is measured.

For the next experiment, the target named is T2, BCAT1 (Homo sapiens, UniProt P54687).
T2 sequence (P54687 1-386): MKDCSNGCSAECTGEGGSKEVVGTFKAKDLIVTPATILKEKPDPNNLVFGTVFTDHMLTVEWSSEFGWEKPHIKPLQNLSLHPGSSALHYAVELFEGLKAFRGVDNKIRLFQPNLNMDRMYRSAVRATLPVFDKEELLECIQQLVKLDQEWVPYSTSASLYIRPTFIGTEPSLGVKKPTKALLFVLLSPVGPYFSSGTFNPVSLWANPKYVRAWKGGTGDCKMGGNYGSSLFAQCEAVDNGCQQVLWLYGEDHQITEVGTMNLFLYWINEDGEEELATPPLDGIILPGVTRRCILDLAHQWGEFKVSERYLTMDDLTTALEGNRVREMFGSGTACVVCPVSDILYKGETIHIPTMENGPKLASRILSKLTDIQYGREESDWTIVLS
In words: BCAT1 enzyme inhibition (human), Glutamate Glo luminescence. In kind it is biochemical. The method, then: The BCAT1 inhibitory activity of selected compounds of the present disclosure were also evaluated. Compounds were prepared as up to 10 mM stock solutions generally using DMSO as the vehicle. 10-point dose response curves were generated using the Echo-550 (Labcyte) acoustic dispenser. Compound source plates ([…]) were made by serially diluting compound stocks to create 1 mM, 0.1 mM, and 0.01 mM solutions in DMSO into Echo certified LDV plates. The Echo then serially spotted 100% DMSO stock solutions into source dose response plates to generate a semi-log fold dilution scheme. 100% DMSO was added to the spotted dose response plates to bring the final volume to 5 μL, creating a 333× stock plate. 120 nL of the dose response stock plate was then spotted into the assay plate. 10 μL of assay buffer (50 mM Tris with 0.05% TWEEN-20) was then added to the plates resulting in a 4× working concentration in the assay plate. Final assay test concentration range was 3 μM to 0.0001 μM with a final DMSO concentration of 0.3%.
BCAT1 enzyme stock was first diluted to a 4× working concentration of 0.24 μg/mL in assay buffer (final assay concentration is 0.06 ug/ml). 10 μL of the 4×BCAT1 solution was then added to the previously prepared assay plate containing test compound or controls, and incubated at room temperature, protected from light, for either 10 or 60 minutes. After the compound incubation period, 20 μL of assay buffer plus 2× substrate is added to all wells (Final assay concentration of substrates is 300 μM L-leucine and 250 μM alpha-ketoglutaric acid). Enzyme reaction was then incubated for 10 minutes at room temperature. After the 10 minute incubation, the enzymatic reaction was halted with the addition of 5 μL of 0.6N HCl and incubated for 1 min. 5 μL of 1M Tris (pH 8.0) was then added to neutralize pH. 12.5 μL of the quenched assay volume was then transferred to a white, 384 well plate and 12.5 μL of Glutamate detection reagent was added (detection reagent prepared per Promega Glutamate Glo kit instructions). Plates were then incubated for 30 minutes at room temperature, protected from light. After glutamate detection incubation period, luminescence was read on BMG Novostar and relative light units was measured and exported for analysis.
Compound modulation of BCAT1 enzymatic activity was determined as follows. IC50 values were calculated in ActivityBase, using a 4-parameter fit equation. Data was normalized to maximum inhibition form the reference agent VS558CSA (at 10 μM). Relative light units were exported for analysis and % inhibition values for each well were calculated using the following formula: […]

A further experiment relates to GM00371 cells. In words: Viability assay (Cell titer glo) in the 3-HIB assay. The experiment is classed as cell-based, human. To be noted: read-out: 3HIB INHIBITION IC50 (μM) MEAN GM00371 cells Viablility Assay. As to the method:
Cell Plating: Cells (Coriell Institute GM00371 cells) were plated (96-well clear bottom sterile plate; Greiner 655098) at 10,000 cells/0.1 mL in Eagle's minimum essential medium (EMEM)/15% FBS (Gibco 16000-044) with a Combi dispenser in a cell culture hood and incubated at 37° C. and 5% CO2 overnight.
Compound Dilution: Compound were prepared as 33.3× intermediate dilution in DMSO in 96 well round polystyrene plates. For 30 μM final maximum start with 30 μL of 10 mM in DMSO. 10-12 1:3 serial dilutions were prepared from left to right (20 μL+40 μL DMSO). A 10× secondary dilution was prepare in EMEM by taking 7.5 μL 33.3× and transfer to replicate 96 well round polystyrene plates and then adding 242.5 μL EMEM A 1× final dilution in EMEM was prepared by taking 50 μL 10× dilution and transferring to replicate 96 well polypropylene assay block (Costar 3956) and adding 450 μL EMEM A control was prepared for maximal compound inhibition by taking 20 μL 10 mM Reference Compound A and adding 40 μL DMSO for a concentration of 3.3 mM To 7.5 μL of the 3.3 mM Reference Compound A solution and added 242.5 μL EMEM to make a 100 μM solution. The subsequent Reference Compound A solution was diluted with EMEM to achieve a final concentration of 10 μM. The structure of Reference Compound A is:
A control was prepared for maximal compound toxicity by taking 7.5 μL Reference Compound B and 242.5 μL EMEM to make […]. 50 μL of that 100 μM Reference Compound B solution was combined with 450 μL EMEM to achieve a concentration of 30 μM. The structure of Reference Compound B is
Compound Treatment: Media was aspirated from the cells and 100 μL of D-PBS (ThermoFisher 14190144) was added and then removed. 100 μL of diluted compound was added to the cells in the place and the cells were incubated at 37° C. and 5% CO2 for 24 hours.
Viability Assay: To the cells remaining in the plate 25 μL D-PBS and 25 μL Cell titer glo reagent (Promega G7572). The plate was placed on a shaker for 2 minutes, incubated at room temperature in the dark and then read on a Clariostar microplate reader.

Usually IC50 stands for the concentration that gives 50% inhibition. On to `CNC(=O)c1ccc2c(c1)nc(-c1ccccc1C#N)n2[C@H]1CCC[C@@H](C(=O)Nc2ccccc2)C1` [Compound 203], for which the results for the IC50 against BCAT2 and at BCAT1 were over 1000 nM and at least 1000 nM, respectively. On the same counts, the results for `CCCNC(=O)c1ccc2c(c1)nc(-c1ccccn1)n2[C@@H]1CCC[C@H](NC(=O)c2ccc(Br)s2)C1` [Compound 204] are 100 to 500 nM and at least 1000 nM. On the same counts, the results for `CNC(=O)c1ccc2c(c1)nc(-c1cnccn1)n2[C@H]1CCC[C@@H](NC(=O)c2ccc(Br)s2)C1` [Compound 149] are 100 to 500 nM and at least 1000 nM.

Consider `N#Cc1ccc2c(c1)nc(-c1ccccn1)n2[C@H]1CCC[C@@H](NC(=O)c2ccc(Cl)s2)C1` [Compound 195], for which the IC50 is under 100 nM at BCAT2 and at least 1000 nM at BCAT1.

As for `CNC(=O)c1cc2nc(-c3ncccc3F)n([C@H]3CCC[C@@H](NC(=O)c4ccc(Cl)s4)C3)c2cc1Cl` [Compound 236], the IC50 against BCAT2 was 100 to 500 nM; against BCAT1, at least 1000 nM.

As to `CNC(=O)c1ccc2c(c1)nc(-c1cccc(F)c1)n2C1CCCN(C(=O)Nc2ccc(Br)s2)C1` (stereo not shown) [Compound 229], the IC50 on BCAT2 was over 1000 nM; at BCAT1, at least 1000 nM. On the same counts, the results for `CNC(=O)c1ccc2c(c1)nc(-c1ccccc1F)n2[C@H]1CCC[C@@H](C(=O)Nc2ccccc2)C1` [Compound 202] are over 1000 nM and at least 1000 nM. For `CNC(=O)c1ccc2c(c1)nc(-c1cccc(F)c1)n2C1CCCN(C(=O)Nc2ccccc2Cl)C1` (stereo not shown) [Compound 227], the IC50 is over 1000 nM at BCAT2 and at least 1000 nM on BCAT1. On the same counts, the results for `O=C(N[C@@H]1CCC[C@H](n2c(-c3ncccc3F)nc3ccncc32)C1)c1ccc(Br)s1` [Compound 298] are under 100 nM and 500 to 1000 nM.

As to `CNC(=O)c1ccc2c(c1)nc(-c1cccc(F)c1)n2C1CCCN(C(=O)Nc2cccs2)C1` (stereo not shown) [Compound 228], the IC50 at BCAT2 was over 1000 nM; at BCAT1 it was at least 1000 nM.

As to `CNC(=O)c1ccc2c(c1)nc(-c1ccc(O)cn1)n2[C@H]1CCC[C@@H](NC(=O)c2ccc(C#N)s2)C1` [Compound 173], the IC50 against BCAT2 was over 1000 nM; against BCAT1 it was at least 1000 nM. `CNC(=O)c1ccc2c(c1)nc(-c1ccccn1)n2[C@H]1CCC[C@@H](NC(=O)c2ccc(C(C)C)s2)C1` [Compound 146]: the IC50 was over 1000 nM on BCAT2 and at least 1 µM in the experiment with GM00371 cells (Homo sapiens, 24 h). On the same counts, the results for `COC(=O)c1ccc2c(c1)nc(-c1ccccn1)n2[C@@H]1CCC[C@H](NC(=O)c2cccs2)C1` [Compound 117] are over 1000 nM and at least 1 µM.

Take `CNC(=O)c1cc2nc(-c3ccccc3F)n([C@H]3CCC[C@@H](NC(=O)c4ccc(Br)s4)C3)c2cc1OC` [Compound 213]: the IC50 at BCAT2 is under 100 nM; with GM00371 cells (Homo sapiens, 24 h), under 0.1 µM. On the same counts, the results for `CNC(=O)c1cc2nc(-c3ccccn3)n([C@H]3CCC[C@@H](NC(=O)c4ccc(Br)s4)C3)c2cc1OC` [Compound 211] are under 100 nM and 0.1 to 0.5 µM. Consider `CNC(=O)c1ccc2c(c1)nc(-c1c(F)cccc1F)n2[C@H]1CCC[C@@H](NC(=O)c2ccc(Br)s2)C1` [Compound 215], for which the figures for the IC50 against BCAT2 and in the experiment with GM00371 cells (24 hours) were under 100 nM and 0.1 to 0.5 µM, respectively. Regarding `CNC(=O)c1ccc2c(c1)nc(-c1ccccn1)n2[C@@H]1CCC[C@H](NC(=O)c2coc(Br)n2)C1` [Compound 120], the IC50 against BCAT2 is over 1000 nM; in the experiment on GM00371 cells (Homo sapiens, 24 h) it was at least 1 µM. On the same counts, the results for `O=C(N[C@H]1CCC[C@@H](n2c(-c3ccccn3)nc3cc(CO)ccc32)C1)c1cccs1` [Compound 118] are over 1000 nM and at least 1 µM.

On to `CNC(=O)c1cc2nc(-c3sccc3C)n([C@H]3CCC[C@@H](NC(=O)c4ccc(Br)s4)C3)c2cc1F` [Compound 210], for which the IC50 on BCAT2 was under 100 nM; in the experiment on GM00371 cells (Homo sapiens, 24 h), at least 1 µM. `CNC(=O)c1ccc2c(c1)nc(-c1ccccn1)n2[C@@H]1CCC[C@@H](NC(=O)c2ccc(Br)s2)C1` [Compound 101] came in with an IC50 on BCAT1 of at least 1000 nM. In the case of `CNC(=O)c1ccc2c(c1)nc(-c1cccc(F)n1)n2[C@H]1CCC[C@@H](NC(=O)c2ccc(Br)s2)C1` [Compound 216], the IC50 on BCAT2 is under 100 nM; with GM00371 cells (Homo sapiens, 24 h), at least 1 µM.

`CNC(=O)c1ccc2c(c1)nc(-c1ccccn1)n2[C@@H]1CCC[C@H](NC(=O)c2ccc(-c3ccccc3)s2)C1` [Compound 111]: the IC50 at BCAT2 is over 1000 nM; in the experiment with GM00371 cells (Homo sapiens, 24 h), at least 1 µM.

Turning to `CNC(=O)c1ccc2c(c1)nc(-c1ccccn1)n2[C@@H]1CCC[C@H](NC(=O)c2ccccc2)C1` [Compound 115], the IC50 against BCAT2 was over 1000 nM; in the experiment with GM00371 cells (Homo sapiens, 24 h), at least 1 µM. On the same counts, the results for `C=CC(=O)N[C@H]1CCC[C@@H](n2c(-c3ccccn3)nc3cc(C(=O)NC)ccc32)C1` [Compound 106] are over 1000 nM and at least 1 µM. On the same counts, the results for `CNC(=O)c1ccc2c(C3CCCC(NC(=O)c4ccc(-c5ccccc5)s4)C3)c(-c3ccccc3)[nH]c2c1` (stereo not shown) [Compound 304] are over 1000 nM and at least 1 µM.
